In assay [1] the target is T1, human mu opioid receptor (Homo sapiens, UniProt P35372).
T1 construct: expressed in transfected cells; host or cells: CHO-K1
Briefly: Human mu GTP-Eu nucleotide exchange assay (agonist mediated activation) in CHO-K1 membranes. It is filed as biochemical. Particulars: bound GTP-Eu relative to DAMGO (IA=100); read-out: intrinsic activity (IA). The procedure:
a. Mu Opioid Receptor Membrane Preparation:
Protein concentration was determined using a Bio-Rad Bradford Protein Assay kit. Membranes were stored in frozen aliquots at −80° C., until required. Lyophilized GTP-Eu and GDP were diluted to 10 μM and 2 mM, respectively, in double distilled H2O then mixed and permitted to sit at room temperature for 30 minutes prior to transfer to individual aliquots samples for storage at −20° C.
b. Human Mu GTP-Eu Nucleotide Exchange Assay
GTP-Eu nucleotide exchange assays were performed using the DELPHIA GTP-binding kit (Perkin/Elmer) in AcroWell 96 well filter plates according to the manufacturer's specifications. […] Test compounds were received as 10 mM stock solutions in DMSO, diluted to 400 μM into Assay Buffer containing 0.1% BSA, and serial (1:5) dilutions then made to generate ten concentrations of compound ranging from 40 pM^− 80 μM-GDP and GTP-Eu were diluted to 4 μM and 40 nM, respectively, in Assay Buffer. The assay was performed in a total volume of 100 μL containing 5 μg of membrane protein, test compound ranging from 10 pM-20 μM), 1 μM GDP, and 10 nM GTP-Eu diluted in 10 mM MgCl2, 50 mM NaCl, and 0.0125% BSA, (final assay concentrations). A DAMGO (Tyr-D-Ala-Gly-(methyl)Phe-Gly-ol) concentration-response curve (ranging from 12.8 pM-1 μM) was included on every plate.
Assay plates were prepared immediately prior to assay following the addition of 25 μL of Assay Buffer, 25 μL of test compound, and 25 μL GDP and GTP-Eu. The assay was initiated by the addition of 25 μL membrane protein and allowed to incubate for 30 minutes. The assay plates were then filtered with a Waters vacuum manifold connected to the house vacuum regulated to 10-2 in. Hg and washed with room temperature GTP Wash Solution ([…]). The bottoms of the plates were blotted to remove excess liquid. The plates were then immediately read to determine the amount of bound GTP-Eu by measuring Time Resolved Fluorescence (TRF) on a Packard Fusion Plate ReaderVehicle: DMSO not to exceed 1% final assay concentration.
The amount of bound GTP-Eu is proportional to the degree of activation of the mu opioid receptors by the test compound.

The target of assay [2] is T1, human mu opioid receptor. The assay can be described thus: Radioligand binding assay, human mu opioid receptor. As to conditions: displacement of [3H]-Diprenorphine. (In general: In a radioligand displacement assay an active substance lowers the binding of a labelled ligand.)
Assay [3] relates to morphine-induced analgesia / morphine-induced delayed gastrointestinal transit.
The mark [4] stands for this setting: following subcutaneous administration.

Where two headings read alike, the source gives them in different places.

T1 sequence (P35372 whole entry): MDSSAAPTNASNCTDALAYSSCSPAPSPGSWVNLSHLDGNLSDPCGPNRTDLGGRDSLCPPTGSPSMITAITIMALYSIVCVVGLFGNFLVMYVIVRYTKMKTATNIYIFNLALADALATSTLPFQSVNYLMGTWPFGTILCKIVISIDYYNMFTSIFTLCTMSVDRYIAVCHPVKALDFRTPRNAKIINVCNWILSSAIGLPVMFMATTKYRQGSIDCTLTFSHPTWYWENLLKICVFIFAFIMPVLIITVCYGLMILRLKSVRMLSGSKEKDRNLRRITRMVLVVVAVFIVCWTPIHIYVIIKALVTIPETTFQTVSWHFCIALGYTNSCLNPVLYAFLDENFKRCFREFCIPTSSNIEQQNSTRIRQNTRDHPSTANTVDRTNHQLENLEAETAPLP

As for `NC(=O)c1cccc([C@H]2C[C@H]3CC[C@@H](C2)N3CCN(Cc2ccccc2)C(=O)CO)c1` [Example 46B, 3-endo-(8-{2-[benzyl-(2-hydroxyacetyl)-amino]ethyl}-8-azabicyclo[3.2.1]oct-3-yl)benzamide], the Emax at human mu opioid receptor [1] was -3%. The pKi (commonly −log10 of the Ki, conventionally taken in molar units) on human mu opioid receptor [2] is listed as 10.0.

`O=C(CO)N(CCN1[C@@H]2CC[C@H]1C[C@@H](c1cccc(O)c1)C2)Cc1ccccc1` [Example 1, N-benzyl-2-hydroxy-N-{2-[3-endo-(3-hydroxyphenyl)-8-azabicyclo[3.2.1]oct-8-yl]ethyl}acetamide]: the Emax at human mu opioid receptor [1] came to 6%. The negative-log Ki (pKi) on human mu opioid receptor [2] is recorded as 10.1.

As to `NC(=O)c1cccc([C@H]2C[C@H]3CC[C@@H](C2)N3CCN(CC2CCCCC2)C(=O)[C@@H](O)CO)c1` [Example 58, 3-endo-(8-{2-[cyclohexylmethyl-((S)-2,3-dihydroxy-propionyl)amino]ethyl}-8-aza-bicyclo[3.2.1]oct-3-yl)benzamide], the entries for the “peripheral selectivity (hotplate ID50 / intestinal transit ID50)” value in assay [3] (following oral administration) and in assay [3] (setting [4]) were 35 and 300, respectively. The Emax on human mu opioid receptor [1] was -3%. For the same molecule, at human mu opioid receptor [2], the negative logarithm of the Ki (pKi) worked out at 9.9.

On to `CS(=O)(=O)CC(=O)N(CCc1ccccc1)CCN1[C@@H]2CC[C@H]1C[C@@H](c1cccc(C(N)=O)c1)C2` [Example 136, 3-endo-(8-{2-[(2-methanesulfonylacetyl)phenethylamino]ethyl}-8-azabicyclo[3.2.1]oct-3-yl)-benzamide], for which the Emax on human mu opioid receptor [1] worked out at 14%. This molecule also displayed a pKi at human mu opioid receptor [2] of 9.8.

As to `NC(=O)c1cccc([C@H]2C[C@H]3CC[C@@H](C2)N3CCN(CCc2ccccc2)C(=O)CO)c1` [Example 59, 3-endo-(8-{2-[(2-hydroxyacetyl)phenethylamino]-ethyl}-8-azabicyclo[3.2.1]oct-3-yl)benzamide], the Emax on human mu opioid receptor [1] is -2%.

For the molecule `NC(=O)c1cccc([C@H]2C[C@H]3CC[C@@H](C2)N3CCN(CC2CCC(F)(F)CC2)C(=O)CO)c1` [Example 63, 3-endo-(8-{2-[(4,4-difluorocyclohexylmethyl)-(2-hydroxyacetyl)amino]ethyl}-8-azabicyclo[3.2.1]oct-3-yl)benzamide], the “peripheral selectivity (hotplate ID50 / intestinal transit ID50)” value in assay [3] (following oral administration) and in assay [3] (setting [4]) was 22 in each case.

For the molecule `NC(=O)c1cccc([C@H]2C[C@H]3CC[C@@H](C2)N3CCN(CC2CCCCC2)C(=O)CO)c1` [Example 48B, 3-endo-(8-{2-[cyclohexylmethyl-(2-hydroxyacetyl)-amino]-ethyl}-8-azabicyclo[3.2.1]oct-3-yl)benzamide], the figures for the “peripheral selectivity (hotplate ID50 / intestinal transit ID50)” value in assay [3] (following oral administration) and in assay [3] (setting [4]) were 42 and 30, respectively.

Source of the values: patent publication US10745394B2, “8-azabicyclo[3.2.1]octane compounds as mu opioid receptor antagonists” (priority 2006, dated 2020).
